Data taken from PMC9574860, “Chemical Toolkit for PARK7: Potent, Selective, and High-Throughput” (Journal of Medicinal Chemistry, 2022).

Legend:
[1] = target: T1, PARK7 (Homo sapiens, UniProt Q99497); assay: High-throughput FP screen of covalent fragment library with JYQ-107; format: binding; set-up: GST (N, cleaved yes); made in house; host or cells: E. coli BL21(DE3) Rosetta2; details: HTS, 100 μM compound, PARK7 0.2 μM, 2 h preincubation, JYQ-107 20 nM, 1536-well
T1 sequence (Q99497 1-189): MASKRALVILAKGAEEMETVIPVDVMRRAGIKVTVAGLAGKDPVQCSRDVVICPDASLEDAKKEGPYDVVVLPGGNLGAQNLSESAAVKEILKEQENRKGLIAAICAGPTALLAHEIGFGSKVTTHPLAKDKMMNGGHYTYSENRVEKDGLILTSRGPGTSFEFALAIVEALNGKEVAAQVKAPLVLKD
Method: The screen was conducted using the conditions as described above in 1536-well plates (Corning 3724) with a reaction volume of 8 μL per well. The compound library containing 7887 covalent fragments was purchased at Enamine Ltd. and received as 100 mM DMSO stocks in 384 well LDV Echo plates (Labcyte LP-0200). Stock solutions of 0.26 μM PARK7 and 80 nM JYQ-107 were prepared. Using a Labcyte Echo550 acoustic dispenser, 8 nL of the DMSO stock solution of the library compounds was transferred from the source plates into the empty 1536-well screening plates to obtain a 100 μM final compound concentration. Next, PARK7 (6 μL, final concentration 0.2 μM) was dispensed using a Biotek MultiflowFX liquid dispenser and incubated for 2 h, followed by dispensing the probe JYQ-107 (2 μL, final concentration 20 nM). After 2 h incubation, the FP signal was recorded on a BMG Labtech PHERAstar plate reader (λex/em 480/520 nm). The relative loss of FP signal compared with reference controls was used to calculate the remaining enzyme activity.

[2] = target: T2, UCHL1 (Homo sapiens, UniProt P09936); assay: UCHL1 activity assay (Ub-Rho-Morpholine or Ub-AMC substrate); format: biochemical; details: UCHL1 1 nM, 1 h preincubation; read-out: UbRhoMP assay UCHL1 IC50
T2 sequence (P09936 1-223): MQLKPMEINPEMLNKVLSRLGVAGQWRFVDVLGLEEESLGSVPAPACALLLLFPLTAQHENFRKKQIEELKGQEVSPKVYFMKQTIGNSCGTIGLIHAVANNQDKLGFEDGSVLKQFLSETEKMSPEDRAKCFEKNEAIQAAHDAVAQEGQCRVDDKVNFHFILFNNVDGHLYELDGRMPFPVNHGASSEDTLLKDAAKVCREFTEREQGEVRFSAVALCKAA
Method: The assay was performed in a buffer containing 50 mM Tris·HCl, 100 mM NaCl at pH 7.5, 2.0 mM cysteine, 1 mg/mL 3-[(3-cholamidopropyl)dimethylammonio]propanesulfonic acid (CHAPS), and 0.5 mg/mL bovine serum albumin and conducted in a 384-well plate (Corning 3820) with a reaction volume 20 μL in triplicate. The compounds were dissolved in DMSO as 10, 1, and 0.1 mM stock solutions and were transferred to obtain a 12-point serial dilution of 0.05 to 200 μM. Next, UCHL1 (15 μL, final concentration of 1 nM) was dispensed with a Biotek MultiFlowFX liquid dispenser and incubated for 1 h, followed by dispensing the substrate Ub-Rho-Morpholine or Ub-AMC (5 μL, final concentration of 400 nM). The FI signal was monitored with a BMG Labtech PHERAstar plate reader (λex/em 487/535 nm or λex/em 350/450 nm) for 1 h. N-Ethylmaleimide (NEM, 10 mM) was used as a positive control (100% inhibition), and DMSO was used as a negative control (0% inhibition). All samples were normalized to the positive and negative controls and plotted against the inhibitor concentrations (in μM) using the built-in equation “[inhibitor] vs response – variable slope (four parameters), least-squares fit” with constraints “Bottom = 0” and “Top = 100” in GraphPad Prism 9.0.1 software to obtain the IC50 values.

[3] = target: T1, PARK7; assay: Probe labeling of purified recombinant PARK7 (SDS-PAGE, fluorescence scanning); format: binding; set-up: GST (N, cleaved yes); made in house; host or cells: E. coli BL21(DE3) Rosetta2; details: purified PARK7 1 μM, 1 h 37 °C; Figure 4A
Description: PARK7 inhibitor JYQ-88 was further converted into activity-based probes by installing SulfoCy5, Rhodamine110, or BodipyFL. We took advantage of the azide moiety in JYQ-88 and conjugated alkyne versions of these dyes using the copper(I)-catalyzed azide alkyne cycloaddition (CuAAC) to obtain compounds JYQ-92, JYQ-93, and JYQ-107 (Scheme 2). We next investigated the ability of the probes to label and visualize PARK7. […] The SulfoCy5 probe JYQ-92 and Rhodamine110 probe JYQ-107 labeled PARK7 already at 1 μM, while the BodipyFL probe JYQ-93 was less efficient than the other probes as PARK7 labeling was only observed from 5 μM.
All the labeling assays were performed in Tris buffer (50 mM Tris–HCl, 150 mM NaCl, 2 mM TCEP, pH 7.5). For labeling with the 8RK59 probe, 1 μM final concentrations of UCHL1 and PARK7 were individually or together incubated with 2 μM final concentrations of 8RK59 for 30 min at 37 °C, followed by protein visualization. For labeling with JYQ-92, JYQ-93, and JYQ-107, 1 μM final concentration of PARK7 was incubated with different concentrations (0, 0.1, 0.5, 1, 2, 5, and 10 μM) of the indicated probes for 1 h at 37 °C. […] These samples were resolved by SDS-PAGE using precast Bis-Tris gels (Invitrogen, NuPAGE) with MES SDS running buffer (Novex, NuPAGE).

[4] = target: T1, PARK7; assay: FP assay with Rhodamine110 probe JYQ-107 (IC50 and hit validation); format: binding; set-up: GST (N, cleaved yes); made in house; host or cells: E. coli BL21(DE3) Rosetta2; details: increasing concentrations, 60 min preincubation; Figure S7
Method: The assay was performed using the conditions as described above with a reaction volume of 20 μL per well in triplicate. Stock solutions of JYQ-88 of 1 and 0.1 mM were prepared. […] The FP signal was monitored with a BMG Labtech PHERAstar plate reader (λex/em 480/520 nm) for 2 h.
The validation was performed using the conditions as described above with a reaction volume of 20 μL per well in triplicate. […] The FP signal was monitored with a BMG Labtech PHERAstar plate reader (λex/em 480/520 nm) for 2 h. The relative loss of FP signal compared with reference controls was used to calculate the remaining enzyme activity. Inhibition percentage of these 40 compounds was plotted as a heatmap using GraphPad Prism 9.0.1 software. Color gradients indicate inhibition percentage, no inhibiton (white) and full inhibition (blue).

[5] = target: T1, PARK7; assay: Gel-based competition assay with probe 8RK59, PARK7 band; format: biochemical; set-up: GST (N, cleaved yes); made in house; host or cells: E. coli BL21(DE3) Rosetta2; details: compound 2 μM, 1 h; PARK7 and UCHL1 1 μM each; then 8RK59 2 μM 30 min; Figure 3B
Method: (§1) To assess the inhibitory potency and selectivity of these compounds toward PARK7 and UCHL1, we performed a gel-based competition assay (Figure 3A).[36] A mixture of equal amounts of PARK7 and UCHL1 (1 μM) was treated with each of the synthesized compounds (2 μM) for 1 h, followed by incubation with fluorescent probe 8RK59 (2 μM) for 30 min. Samples were resolved by SDS-PAGE, and the gel was scanned for fluorescence. Inhibition of PARK7 or UCHL1 is reflected by the disappearance of their corresponding bands (Figure 3B). […] The inhibition potential of JYQ-88 against PARK7 was assessed in a similar assay where PARK7 was incubated with a serial dilution of JYQ-88 before treatment with probe 8RK59 (Figure 3C). A clear inhibition is visible at 0.5 μM, and full inhibition is achieved between 1 and 2 μM. […] The selectivity of JYQ-88 between UCHL1 and PARK7 was further confirmed in a direct competition assay between equal amounts of PARK7 and UCHL1 (Figure 3F). PARK7 inhibition was observed starting from 0.5 μM JYQ-88, whereas inhibition of UCHL1 was only detected at 20 μM. Since JYQ-88 and 8RK64 are enantiomers, we assumed that the interactions with PARK7 should be similar. To investigate how the chiral center influences the selectivity, we solved the crystal structure of the PARK7−JYQ-88 complex with 1.42 Å resolution (Figure 3G, Table S1, PDB 7PA3). The global positioning of the inhibitor in between the two α-helices was similar to that for 8RK64. […] This way, the thiazolo-pyridine part of JYQ-88 is bound in a similar manner as 8RK64 and the earlier observed interactions are largely the same. The formation of the isothiourea moiety, stabilized by the interaction with Glu18, and the interaction between the thiazole amine and the amide NH2 of the Asn76 side chain are still present. However, the interaction between the azidoacetyl carbonyl with the Leu128 backbone carbonyl can no longer be observed due to the rotation of the azidoacetyl moiety. The Lys132 residue also seems to have rotated (compared to Figure 2C).
(§2) The assay was performed in Tris buffer as described above.

[6] = target: T2, UCHL1; assay: Gel-based competition assay with probe 8RK59, UCHL1 band; format: biochemical; details: compound 2 μM, 1 h; PARK7 and UCHL1 1 μM each; then 8RK59 2 μM 30 min; Figure 3B
Method: as §1, §2

Row | Molecule | Inhibition % [1] | Inhibition of PARK7 (disappearance of 8RK59-labeled band) [5] | Inhibition of UCHL1 (disappearance of 8RK59-labeled band) [6] | other results
1 | N#CC=Cc1cccc2cccnc12 [Z3236183481, 3-(quinolin-8-yl)prop-2-enenitrile] | -0.97% | – | – | –
2 | O=C(NC1CCN(Cc2ccccc2)CC1)n1ccnc1 [Z319217184, N-(1-benzylpiperidin-4-yl)-1H-imidazole-1-carboxamide] | 1.56% | – | – | –
3 | C#CC(=O)N1CCc2cc(C(=O)O)ccc21 [Z3227873366, 1-(prop-2-ynoyl)-2,3-dihydro-1H-indole-5-carboxylic acid] | 1.76% | – | – | –
4 | CC1=CC(C)=[N+]2C1=C(CCCCc1cn(CC(=O)N3CCc4nc(NC(=O)[C@@H]5CCN(C#N)C5)sc4C3)nn1)c1c(C)cc(C)n1[B-]2(F)F [JYQ-93] | – | – | – | IC50 [2]: 23 µM; Probe concentration from which PARK7 labeling was observed [3]: 5 µM
5 | N#CN1CC[C@H](C(=O)Nc2nc3c(s2)CN(C(=O)c2cn(CC4CCCO4)nn2)CC3)C1 (stereo partly drawn) [JYQ-55, (3S)-1-Cyano-N-(5-(1-((tetrahydrofuran-2-yl)methyl)-1H-1,2,3-triazole-4-carbonyl)-4,5,6,7-tetrahydrothiazolo[5,4-c]pyridin-2-yl)pyrrolidine-3-carboxamide] | – | hardly show any inhibition | hardly show any inhibition | Inhibition of PARK7 in FP assay [4]: no inhibition
6 | CC1(C)CN(C(=O)CC2OCCCO2)CC2(CCCC2)O1 [Z1953185127, 1-{7,7-dimethyl-6-oxa-9-azaspiro[4.5]decan-9-yl}-2-(1,3-dioxan-2-yl)ethan-1-one] | 1.97% | – | – | –
7 | NCC1CCN(C(=O)C=Cc2ccc(Cl)s2)C1 (stereo not drawn) [Z2242910917, 1-[3-(aminomethyl)pyrrolidin-1-yl]-3-(5-chlorothiophen-2-yl)prop-2-en-1-one] | -0.36% | – | – | –
8 | CN1C(=O)CC(C(=O)N2CCc3nc(NC(=O)[C@H]4CCN(C#N)C4)sc3C2)[C@@H]1c1cccnc1 (stereo partly drawn) [JYQ-79, (3S)-1-Cyano-N-(5-((2R)-1-methyl-5-oxo-2-(pyridin-3-yl)pyrrolidine-3-carbonyl)-4,5,6,7-tetrahydrothiazolo[5,4-c]pyridin-2-yl)pyrrolidine-3-carboxamide] | – | less efficiently | fully inhibit | –
9 | N#CN1CC[C@H](C(=O)Nc2nc3c(s2)CN(C(=O)Cc2ccncc2)CC3)C1 [JYQ-76, (S)-1-Cyano-N-(5-(2-(pyridin-4-yl)acetyl)-4,5,6,7-tetrahydrothiazolo[5,4-c]pyridin-2-yl)pyrrolidine-3-carboxamide] | – | less efficiently | fully inhibit | –
10 | N#CN1CC[C@H](C(=O)Nc2nc3c(s2)CN(C(=O)c2ccc(Br)cc2)CC3)C1 [JYQ-77, (S)-N-(5-(4-Bromobenzoyl)-4,5,6,7-tetrahydrothiazolo[5,4-c]pyridin-2-yl)-1-cyanopyrrolidine-3-carboxamide] | – | hardly show any inhibition | hardly show any inhibition | –
11 | (3S)-N-(5-((1S,2R,5R)-Adamantane-2-carbonyl)-4,5,6,7-tetrahydrothiazolo[5,4-c]pyridin-2-yl)-1-cyanopyrrolidine-3-carboxamide [JYQ-83] | – | hardly show any inhibition | hardly show any inhibition | –
